Measurements reported in patent US6780821B1, “Substituted phenyl uracils” (Bayer Aktiengesellschaft, priority 1998, dated 2004).

Row | Structure (SMILES) | melting point [°C]
1 | COc1ccc(Oc2cc(-n3c(=O)cc(C(F)(F)F)[nH]c3=O)c(F)cc2C#N)cc1 [Example 1, 4-(3,6-dihydro-2,6-dioxo-4-trifluoromethyl-1(2H)-pyrimidin-1-yl)-5-fluoro-2-(4-methoxy-phenoxy)-benzonitrile] | 84
2 | COc1ccc(Oc2cc(-n3c(=O)cc(C(F)(F)F)n(C)c3=O)c(F)cc2C#N)cc1 [Example 2, 4-(3,6-dihydro-2,6-dioxo-3-methyl-4-trifluoromethyl-1(2H)-pyrimidin-1-yl)-5-fluoro-2-(4-methoxy-phenoxy)-benzonitrile] | 62
